In ChEMBL document CHEMBL1250444, “Nitric oxide activates TRP channels by cysteine S-nitrosylation” (Nat Chem Biol, 2006) one finds Activity data, which are given here for two molecules.

Holding throughout (assay type): cell-based
Common to all, as to conditions: HEK293

Assay [1] concerns the target T1, Short transient receptor potential channel 5 (Homo sapiens) (UniProt Q9UL62).
T1 sequence (whole entry): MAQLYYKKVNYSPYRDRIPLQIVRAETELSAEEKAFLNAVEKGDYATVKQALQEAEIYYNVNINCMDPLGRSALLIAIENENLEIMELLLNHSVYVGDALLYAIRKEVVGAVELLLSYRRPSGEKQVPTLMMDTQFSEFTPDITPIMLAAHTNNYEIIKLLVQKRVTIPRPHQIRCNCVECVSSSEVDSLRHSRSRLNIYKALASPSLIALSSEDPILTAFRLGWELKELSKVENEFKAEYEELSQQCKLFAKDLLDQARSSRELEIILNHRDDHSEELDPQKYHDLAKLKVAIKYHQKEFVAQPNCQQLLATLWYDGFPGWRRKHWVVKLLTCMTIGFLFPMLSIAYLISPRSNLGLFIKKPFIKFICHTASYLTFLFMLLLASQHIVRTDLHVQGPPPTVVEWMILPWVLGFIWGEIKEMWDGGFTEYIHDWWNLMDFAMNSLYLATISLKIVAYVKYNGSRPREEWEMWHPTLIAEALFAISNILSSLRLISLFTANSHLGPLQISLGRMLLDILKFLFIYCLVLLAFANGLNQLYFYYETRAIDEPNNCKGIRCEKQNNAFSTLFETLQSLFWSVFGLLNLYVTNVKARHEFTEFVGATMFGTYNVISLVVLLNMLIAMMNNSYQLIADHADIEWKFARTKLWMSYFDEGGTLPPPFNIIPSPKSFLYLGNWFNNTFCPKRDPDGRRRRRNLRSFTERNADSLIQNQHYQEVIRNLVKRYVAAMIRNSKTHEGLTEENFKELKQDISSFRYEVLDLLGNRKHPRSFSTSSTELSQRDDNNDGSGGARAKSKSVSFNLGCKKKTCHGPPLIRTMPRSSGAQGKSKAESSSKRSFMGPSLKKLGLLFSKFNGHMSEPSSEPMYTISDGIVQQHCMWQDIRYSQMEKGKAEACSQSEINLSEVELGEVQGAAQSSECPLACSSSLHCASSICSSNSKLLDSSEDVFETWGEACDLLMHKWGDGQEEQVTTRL
Briefly: Induction of S-nitrosylation of TRPC5 in HEK cells assessed as increase in Ca2+ level from extracellular space at 1 mM in presence of ascorbic acid.

Assay [2] deals with T2, Short transient receptor potential channel 5 (Homo sapiens), Q9UL62 [C553S].
T2 sequence (whole entry): T1 sequence (whole entry) with C553S
Briefly: Decrease in TRPC5 C553S mutant S-nitrosylation in HEK cells assessed as inhibition of incorporation of DTNB-2Bio at 300 uM relative to control.

Assay [3] shares this test system. Briefly: Decrease in TRPC5 C553S mutant S-nitrosylation in HEK cells assessed as inhibition of incorporation of DTNB-2Bio at 30 uM relative to control.

Substitutions are numbered along the chain they refer to. Calls of active or inactive are those of the source. No cut-off for these calls is given here.

As to `CC(=O)N[C@@H](C(=O)O)C(C)(C)SN=O` (racemic), the outcome in assay [1] was inactive. Besides, in assay [2], the outcome was Active. For `O=[N+]([O-])c1ccc(SSc2ccc([N+](=O)[O-])cn2)nc1`, the outcome in assay [3] was Active.
